In patent US12559474B2, “Triazine derivatives having virus replication inhibitory activity and pharmaceutical composition comprising the same” (priority 2021, dated 2026):
Read-outs that look alike come from different tables or passages of the source.

Tests used:
[1] = system: SARS-CoV-2; experiment: microbe, parasite or virus in culture; type: cell-based; details: Severe acute respiratory syndrome coronavirus 2, VeroE6/TMPRSS2, 72 h, 50% SARS-CoV-2 infected cell death inhibitory concentration, VeroE6/TMPRSS2 cells, 3 days culture
[2] = molecular target: SARS-CoV-2 3CL protease (Severe acute respiratory syndrome coronavirus 2, UniProt P0DTD1); experiment: biochemical; details: 50% SARS-CoV-2 3CL protease inhibitory concentration, read-out: IC50

| SMILES | EC50 ([1]; class symbols) [µM] | IC50 ([2]; given as class symbols) [µM] | IC50 ([2]; RapidFire MS) [µM] | EC50 ([1]; CellTiter-Glo 2.0) [µM] |
| --- | --- | --- | --- | --- |
| COc1ccc(Nc2nc(=O)n(Cc3cc(C)n[nH]c3=O)c(=O)n2Cc2cc(F)c(F)c(F)c2)c(Cl)c1 [II-0084] | < 1 | < 0.1 | – | – |
| Cc1cncc(-n2c(=O)nc(Nc3cc4cn(C)nc4cc3Cl)n(Cc3cc(C#N)ccc3Cc3cccc(F)c3)c2=O)c1 [II-0027] | < 1 | < 0.1 | – | – |
| CNc1cncc(-n2c(=O)nc(Nc3cc4cn(C)nc4cc3Cl)n(Cc3cc(C#N)c(F)cc3Cl)c2=O)c1 [II-0598] | < 1 | < 0.1 | – | – |
| CCOc1ccc(Nc2nc(=O)n(Cc3ccc[nH]c3=O)c(=O)n2Cc2cc(F)c(F)c(F)c2)c(Cl)c1 [Compound I-0242] | < 1 | < 0.1 | – | – |
| Cn1ccc(-c2ccnc(Cn3c(=O)nc(Nc4cc5cn(C)nc5cc4Cl)n(Cc4cc(F)c(F)cc4F)c3=O)n2)n1 [II-0250] | 1 to 10 | < 0.1 | – | – |
| Cn1cnc(Cn2c(=O)cc(Nc3cc4cn(CC(F)F)nc4cc3Cl)n(Cc3cc(F)c(F)c(F)c3)c2=O)n1 [II-0429] | 1 to 10 | < 0.1 | – | – |
| CS(=O)(=O)c1ccc(Nc2nc(=O)n(Cc3ccc[nH]c3=O)c(=O)n2Cc2cc(F)c(F)c(F)c2)cc1 [Compound I-0033] | < 1 | 1 to 10 | 5.6 | – |
| Cc1cncc(-n2c(=O)nc(Nc3cc4c(cc3Cl)nc3n4CCN3)n(Cc3ccc(F)c(C#N)c3)c2=O)c1 [II-0407] | – | – | 0.0038 | 15 |
| COc1ccc(Nc2nc(=O)n(Cc3ncn(C)n3)c(=O)n2Cc2cc(F)c(F)c(F)c2)cc1 [Compound I-0335] | 1 to 10 | 0.1 to 1 | – | – |
| Cn1cc2cc(Nc3nc(=O)n(-c4cncc(Cl)c4)c(=O)n3Cc3cc(F)c(F)c(F)c3)ccc2n1 [II-0609] | – | – | 0.12 | 2.04 |
| Cc1cncc(-n2c(=O)nc(Nc3cc4cn(CC(F)F)nc4cc3F)n(Cc3cc(F)c(F)cc3F)c2=O)c1 [II-0355] | < 1 | < 0.1 | – | – |
| N#Cc1cc(F)cc(Cn2c(Nc3cc4c(cc3Cl)OCC4)nc(=O)n(Cc3ccc[nH]c3=O)c2=O)c1 [II-0029] | 1 to 10 | < 0.1 | – | – |
| Cn1cnc(Cn2c(=O)nc(Nc3cc4cn(C)nc4cc3Cl)n(Cc3cc(Cl)c(F)c(Cl)c3)c2=O)n1 [II-0584] | – | – | 0.0048 | 0.75 |
| COc1ccc(Nc2nc(=O)n(Cc3ccc[nH]c3=O)c(=O)n2Cc2cc(F)c(F)cc2F)cc1 [Compound I-0320] | 1 to 10 | < 0.1 | – | – |
| Cn1cnc(Cn2c(=O)nc(Nc3cc4cn(CC(=O)OC(C)(C)C)nc4cc3Cl)n(Cc3cc(F)c(F)c(Cl)c3)c2=O)n1 [II-0311] | 1 to 10 | < 0.1 | – | – |
| Cc1cncc(-n2c(=O)nc(Nc3cc4cn(C(F)F)nc4cc3Cl)n(Cc3ccc(F)c(C#N)c3)c2=O)c1 [Compound I-0430] | < 1 | < 0.1 | – | – |
| COc1ccc(Nc2nc(=O)n(-c3cncc4ccccc34)c(=O)n2Cc2ccc(F)c(C#N)c2)c(C)c1 [II-0169] | < 1 | < 0.1 | – | – |
| CNc1nc2ccc(Nc3nc(=O)n(-c4cncc(Cl)c4)c(=O)n3Cc3cc(C#N)c(F)cc3C)cc2s1 [II-0396] | < 1 | < 0.1 | – | – |
| COc1cc(Cl)c(Nc2nc(=O)n(Cc3ccc[nH]c3=O)c(=O)n2Cc2cc(F)c(F)c(F)c2)c(OC)c1 [Compound I-0094] | 1 to 10 | < 0.1 | – | – |
| Cn1cnc(Cn2c(=O)nc(Nc3cc4cn(CC5(NC(=O)OC(C)(C)C)CC5)nc4cc3Cl)n(Cc3cc(F)c(F)c(Cl)c3)c2=O)n1 [II-0565] | 1 to 10 | < 0.1 | – | – |
| COc1ccc(Nc2nc(=O)n(Cc3ccc[nH]c3=O)c(=O)n2Cc2ccc(F)c(C#N)c2)c(F)c1 [Compound I-0332] | 1 to 10 | < 0.1 | – | – |
| Cc1cncc(-n2c(=O)nc(N3CC4(CCOC4)C3)n(Cc3cc(F)c(F)c(F)c3)c2=O)c1 [II-0376] | – | – | 1 | 7.13 |
| CNc1nc2cc(Cl)c(Nc3nc(=O)n(Cc4ncn(C)n4)c(=O)n3Cc3cc(F)c(F)cc3F)cc2o1 [II-0517] | 1 to 10 | < 0.1 | – | – |
| COc1ccc(Nc2nc(=O)n(Cc3ccc[nH]c3=O)c(=O)n2Cc2cc(F)c(F)c(F)c2)cc1 [Compound I-0020] | 1 to 10 | < 0.1 | – | – |
| Cc1cncc(-n2c(=O)nc(Nc3cc4cn(C)nc4cc3Cl)n(Cc3cc(Cl)ccc3C)c2=O)c1 [II-0332] | – | – | 0.002 | 0.054 |
| Cn1cnc(Cn2c(=O)nc(Nc3cc4cn(CC5CCO5)nc4cc3Cl)n(Cc3cc(Cl)c(F)cc3F)c2=O)n1 (racemic) [II-0408] | 1 to 10 | < 0.1 | – | – |
| COc1ccc(Nc2nc(=O)n(-c3cncc(C)c3)c(=O)n2Cc2ccc(F)c(C#N)c2)c(Cl)c1 [II-0165] | < 1 | < 0.1 | – | – |
| CNc1nc2cc(Cl)c(Nc3nc(=O)n(Cc4ccc[nH]c4=O)c(=O)n3Cc3cc(F)c(F)c(F)c3)cc2s1 [Compound I-0467] | 1 to 10 | < 0.1 | – | – |
